Data: patent US11116738B2, “Methods for treating neutropenia using retinoid agonists” (CHILDREN'S HOSPITAL LOS ANGELES, priority 2012, dated 2021)

B1: G-CSF: recombinant granulocyte colony-stimulating factor (protein, UniProt P09919 31-207, looked up)
Granulocyte …: TPLGPASSLPQSFLLKCLEQVRKIQGDGAALQEKLVSECATYKLCHPEELVLLGHSLGIPWAPLSSCPSQALQLAGCLSQLHSGLFLYQGLLQALEGISPELGPTLDTLQLDVADFATTIWQQMEELGMAPALQPTQGAMPAFASAFQRRAGGVLVASHLQSFLEVSYRVLRHLAQP

Assays:
[1] = system: neutrophils induced from CD34+ cells; assay: Degranulation analysis by Western blotting with or without E. coli stimuli; type: cell-based, human; settings: FIGS. 1, 2
Description: Western blotting (WB) was performed as described.^15 Antibodies for lactoferrin (Abcam, Cambridge, UK), MMP-9 (Merck Chemicals, Darmstadt, Germany), and LL-37 (Biolegend, San Diego, Calif.) were used in analyses.
Cells were incubated with or without E. coli DH5α (MOI of 5; cell to bacteria ratio 1:5) in serum-free DMEM medium for 30 min at 37° C. Both cell pellets and supernatants were collected by 3,000-rpm centrifugation for 7 min. The cell pellets were suspended with 100 μg/ml of gentamicin and incubated at 37° C. for 1 hr, followed by collection of cells and extraction of cellular proteins. The supernatant was filtered with a 0.22-μm filter (Pall corporation, Ann Arbor, Mich.) and proteins in the supernatant were then concentrated by using an Amicon Ultra-4 centrifugal filter unit designed to collect proteins with a mass greater than 3,000 daltons (Millipore, Billerica, Mass.). The quantity of the proteins was measured by using Bio-Rad DC Protein Assay (Hercules, Calif.).^29 The change in granule protein levels with or without E. coli stimuli was analyzed in parallel by WB.

S. aureus = assay: Bactericidal activity in vitro of neutrophils purified from PB of treated neutropenic mice
Description: Each 5×10^5 to 2×10^6 of freshly purified PBN as well as ex vivo-induced GIN and AIN were suspended with 500 μl of culture medium (DMEM with 10% of FBS) in 1.5-ml tubes. Cells were incubated with log-phase Escherichia coli (E. coli) DH5α (provided by collaborator) or Staphylococcus aureus (S. aureus; ATCC) at an MOI of 5 or 10 at 37° C. for 15, 30, and/or 60 min, whereas bacteria in the absence of cells were used to determine growth. The samples with or without cells were centrifuged at 1000-rpm at each time point. Extracellular bacteria in the presence of cells were collected from the supernatants, and enumerated by plating different dilutions (20 μL each) on blood agar. Cell pellets collected from the samples infected with bacteria were further incubated with 100 μg/ml of gentamicin (Sigma) for 1 hr at 37° C. to kill external bacteria. Cells were then washed twice and lysed with 100 μL of 0.5% Triton X-100. Different-dilution aliquots (20 μL for each) of viable intracellular bacteria recovered from the cell lysates were plated on blood agar. The numbers of extracellular and viable intracellular bacteria at each time point were determined by CFU counts as described,^5,30 while the number of phagocytosed and killed bacteria was based on the counts of extracellular and viable intracellular bacteria to the number of relevant bacteria control in the neutrophil-free condition.^5,30

CD34+ cells [2] = assay: Morphologic analysis of granulocytic differentiation of CD34+ cells; type: cell-based, human; settings: for neutrophil morphologic differentiation, promyelocyte to segmented stage (in words): G-CSF 25 ng/ml or Am80 2.5 nM; for efficacy as inducer of granulocytic differentiation (in words): CD34+ cells, FIG. 6, day 12-13
Description: (§1) Normal human primitive umbilical cord blood CD34+ cells were from AllCells (Emeryville, Calif.). CD34+ cells were expanded^29 about 50× by using StemSpan serum-free medium (StemCell Technologies, Vancouver, Canada) for 6 days according to the manufacturer's protocol. To induce granulopoiesis, CD34+ cells were cultured with myeloid medium supplemented with 25 ng/ml of G-CSF^17,29 for 6-12 days. Lymphoid and erythroid cells were blocked during granulopoiesis by addition of hydrocortisone and exclusion of erythropoietin.^17, 29 All-trans retinoic acid (RA) was from Sigma (St. Louis, Mo.), while the retinoid agonists Am80, CH55, and IT-YA-01115 (ITYA) were from Research Foundation ITSUU Laboratory (Tokyo, Japan). Each retinoid compound was dissolved in ethanol. The experimentally determined conditions, using 25 ng/ml of G-CSF^17,29 or 2.5 nM of Am80 for granulocytic induction of 6 days (FIG. 1), were applied in the studies.
Cell suspensions were cytocentrifuged onto Micro slides, followed by methanol fixation and stained with Wright-Giemsa (Sigma) as described.^17,29 The morphologic indicators of differentiation were evaluated under a Zeiss Axioplan microscope, and images were color balanced with Adobe Photoshop as described.^17
Cells suspended in PBS containing 0.5% BSA and 2 mM EDTA were mixed with anti-CD15 antibodies conjugated to magnetic microbeads (Miltenyi Biotec, Bergish Gladbach, Germany) for incubation of 30 min at 4° C. CD15+ subpopulation was then purified by using magnetic sorter (Miltenyi Biotec, Bergish Gladbach, Germany) according to the manufacturer's protocol.

[3] = system: acute promyelocytic leukemia (APL); settings: APL patients; cited from earlier work
neutropenic mice = assay: Neutrophil recovery in CPA-induced neutropenic mice; type: in vivo, C57BL6/J mice
CD34+ cells [4] = type: cell-based; settings: for cell death rate (in words) / cell proliferation (in words): CD34+ cells, FIG. 6B, 6D
Description: as §1, with “[…].” for “Lymphoid and erythroid cells were blocked during granulopoiesis by addition of hydrocortisone and exclusion of erythropoietin.^17, 29 All-trans retinoic acid (RA) was from Sigma (St. Louis, Mo.), while the retinoid agonists Am80, CH55, and IT-YA-01115 (ITYA) were from Research Foundation ITSUU Laboratory (Tokyo, Japan).”
Cell proliferation was determined by cell count with a standard hemocytometer, as described.^17,29 Briefly, equal numbers of cells plated in triplicate were counted for up to 13 days after 72 hr of plating. By using trypan blue exclusion, cell proliferation and its associated cell death in the cultures were measured simultaneously.

Molecule | granulocytic morphologic differentiation and granule production/secretion compared with G-CSF (in words) [1] | efficacy of mobilized neutrophils against S aureus infection (in words) (S. aureus) | neutrophil morphologic differentiation, promyelocyte to segmented stage (in words) (CD34+ cells [2]; 6 days) | granulocytic differentiation (in words) (CD34+ cells [2]; Am80 2.5 nM, 6 days) | efficacy as inducer of granulocytic differentiation (in words) (CD34+ cells [2]) | efficiency relative to RA or other retinoids as differentiation therapy [3] | toxicity relative to RA or other retinoids (in words) [3] | neutrophil recovery (in words) (neutropenic mice; day 3 post-CPA, Am80 5 mg/kg vs G-CSF of 250 μg, lower level of Ficoll-paque) | toxicity (in words) (CD34+ cells [4]; Am80 2.5 nM, 6 days) | cell death (in words) (CD34+ cells [4]; Am80 10 nM) | cell death rate (in words) (CD34+ cells [4]) | cell proliferation (in words) (CD34+ cells [4]) | monocytes induced (CD34+ cells [2]; G-CSF 25 ng/ml, 6 days) | granulocytic differentiation and monocytic induction by treatment time (in words) (CD34+ cells [2]; G-CSF for 6, 9 and 12 days) | neutrophil recovery (in words) (neutropenic mice; day 5, injection for 2 consecutive days)
CC1(C)CCC(C)(C)c2cc(NC(=O)c3ccc(C(=O)O)cc3)ccc21 [Am80, tamibarotene] | more effective than G-CSF | significantly more efficacious against S aureus infection than those by G-CSF | sufficiently induced | profoundly induced granulocytic differentiation with negligible monocytic induction | promote granulocytic differentiation with similar effectiveness | approximately 10 fold | lower toxicity | competitive neutrophil recovery | less toxicity than 5 nM of Am80 | induced more cell death | lower than seen with either CH55 or RA | inhibited cell proliferation | – | – | –
CC(C)(C)c1cc(C(=O)/C=C/c2ccc(C(=O)O)cc2)cc(C(C)(C)C)c1 [CH55] | – | – | – | – | promote granulocytic differentiation with similar effectiveness | – | – | – | – | – | – | inhibited cell proliferation | – | – | –
CC1=C(/C=C/C(C)=C/C=C/C(C)=C/C(=O)O)C(C)(C)CCC1 [RA, all-trans retinoic acid] | – | – | – | – | promote granulocytic differentiation with similar effectiveness | – | – | – | – | – | – | inhibited cell proliferation | – | – | –
B1 | – | – | induced more myeloblasts as well as promyelocytes and myelocytes than banded and segmented neutrophils | – | significantly less efficacious | – | – | – | – | – | lower rate of cell death compared to RA | greater cell proliferation | about 10% | more effective granulocytic differentiation with the lowest rate of monocytic induction on day 6 | remarkably accelerated neutrophil recovery
